From article PMC3108469 (Journal of Medicinal Chemistry, 2011) come the findings set out here.

The conditions of this series: Sprague–Dawley rats.

`CN(C)[C@@H]1C(O)=C(C(N)=O)C(=O)[C@@]2(O)C(O)=C3C(=O)c4c(c(F)c5ccc(CN6CCC6)cc5c4O)C[C@H]3C[C@@H]12` [19c-5, (4S,4aS,5aR,14aS)-10-(Azetidin-1-ylmethyl)-4-(dimethylamino)-7-fluoro-3,12,14,14a-tetrahydroxy-1,13-dioxo-1,4,4a,5,5a,6,13,14a-octahydropentacene-2-carboxamide]: the Vz entry is reported as “exceptionally large” and the exposure result is listed as “extremely poor exposure”.
`CN(C)c1cc(NC(=O)CNC(C)(C)C)c(O)c2c1C[C@H]1C[C@H]3[C@H](N(C)C)C(O)=C(C(N)=O)C(=O)[C@@]3(O)C(O)=C1C2=O` [tigecycline, reference compound]: the “oral bioavailability (%F)” value is “almost no oral bioavailability”.
